Assay results taken from ChEMBL document CHEMBL1127612, “Maleimidoethyl 3-(tri-n-butylstannyl)hippurate: a useful radioiodination reagent for protein radiopharmaceuticals to enhance target selective radioactivity localization” (J Med Chem, 1994).

Experiments:
Settings in all cases: in vivo
Mus musculus [1] = test: Tested for biodistribution of radioactivity after 24 hr of intravenous injection in mice feces; type: ADME, organism-based
Mus musculus [2] = test: Tested for biodistribution of radioactivity after 72 hr of intravenous injection in mice spleen; type: ADME, organism-based
Mus musculus [3] = test: Tested for biodistribution of radioactivity after 1 hr of intravenous injection in mice kidneys; type: ADME, organism-based, Kidney
Mus musculus [4] = test: Tested for biodistribution of radioactivity after 48 hr of intravenous injection in mice lung; type: ADME, organism-based
Mus musculus [5] = test: Tested for biodistribution of radioactivity after 24 hr of intravenous injection in mice liver; type: ADME, organism-based
Mus musculus [6] = test: Tested for biodistribution of radioactivity after 10 min of intravenous injection in mice spleen; type: ADME, organism-based
Mus musculus [7] = test: Tested for biodistribution of radioactivity after 3h of intravenous injection in mice lung; type: ADME, organism-based
Mus musculus [8] = test: Tested for biodistribution of radioactivity after 72 hr of intravenous injection in mice lung; type: ADME, organism-based
Mus musculus [9] = test: Tested for biodistribution of radioactivity after 72 hr of intravenous injection in mice intestine; type: ADME, organism-based
Mus musculus [10] = test: Tested for biodistribution of radioactivity after 48 hr of intravenous injection in mice stomach; type: ADME, organism-based
Mus musculus [11] = test: Tested for biodistribution of radioactivity after 6 hr of intravenous injection in mice stomach; type: ADME, organism-based
Mus musculus [12] = test: Tested for biodistribution of radioactivity after 10 min of intravenous injection in mice lung; type: ADME, organism-based
Mus musculus [13] = test: Tested for biodistribution of radioactivity after 10 min of intravenous injection in mice neck; type: ADME, organism-based
Mus musculus [14] = test: Tested for biodistribution of radioactivity after 3h of intravenous injection in mice neck; type: ADME, organism-based
Mus musculus [15] = test: Tested for biodistribution of radioactivity after 10 min of intravenous injection in mice intestine; type: ADME, organism-based
Mus musculus [16] = test: Tested for biodistribution of radioactivity after 72 hr of intravenous injection in mice kidneys; type: ADME, organism-based
Mus musculus [17] = test: Tested for biodistribution of radioactivity after 10 min of intravenous injection in mice stomach; type: ADME, organism-based
Mus musculus [18] = test: Tested for biodistribution of radioactivity after 3h of intravenous injection in mice spleen; type: ADME, organism-based
Mus musculus [19] = test: Tested for biodistribution of radioactivity after 1 hr of intravenous injection in mice neck; type: ADME, organism-based
Mus musculus [20] = test: Tested for biodistribution of radioactivity after 3h of intravenous injection in mice kidneys; type: ADME, organism-based, Kidney
Mus musculus [21] = test: Tested for biodistribution of radioactivity after 1 hr of intravenous injection in mice liver; type: ADME, organism-based
Mus musculus [22] = test: Tested for biodistribution of radioactivity after 48 hr of intravenous injection in mice spleen; type: ADME, organism-based
Mus musculus [23] = test: Tested for biodistribution of radioactivity after 48 hr of intravenous injection in mice neck; type: ADME, organism-based
Mus musculus [24] = test: Tested for biodistribution of radioactivity after 6 hr of intravenous injection in mice lung; type: ADME, organism-based
Mus musculus [25] = test: Tested for biodistribution of radioactivity after 3h of intravenous injection in mice liver; type: ADME, organism-based
Mus musculus [26] = test: Tested for biodistribution of radioactivity after 48 hr of intravenous injection in mice kidneys; type: ADME, organism-based
Mus musculus [27] = test: Tested for biodistribution of radioactivity after 24 hr of intravenous injection in mice lung; type: ADME, organism-based
Mus musculus [28] = test: Tested for biodistribution of radioactivity after 24 hr of intravenous injection in mice blood; type: ADME, organism-based
Mus musculus [29] = test: Tested for biodistribution of radioactivity after 6 hr of intravenous injection in mice intestine; type: ADME, organism-based
Mus musculus [30] = test: Tested for biodistribution of radioactivity after 6 hr of intravenous injection in mice blood; type: ADME, organism-based
Mus musculus [31] = test: Tested for biodistribution of radioactivity after 24 hr of intravenous injection in mice neck; type: ADME, organism-based
Mus musculus [32] = test: Tested for biodistribution of radioactivity after 1 hr of intravenous injection in mice intestine; type: ADME, organism-based
Mus musculus [33] = test: Tested for biodistribution of radioactivity after 24 hr of intravenous injection in mice kidneys; type: ADME, organism-based, Kidney
Mus musculus [34] = test: Tested for biodistribution of radioactivity after 10 min of intravenous injection in mice kidneys; type: ADME, organism-based
Mus musculus [35] = test: Tested for biodistribution of radioactivity after 72 hr of intravenous injection in mice neck; type: ADME, organism-based
Mus musculus [36] = test: Tested for biodistribution of radioactivity after 6 hr of intravenous injection in mice neck; type: ADME, organism-based
Mus musculus [37] = test: Tested for biodistribution of radioactivity after 48 hr of intravenous injection in mice intestine; type: ADME, organism-based
Mus musculus [38] = test: Tested for biodistribution of radioactivity after 1 hr of intravenous injection in mice lung; type: ADME, organism-based
Mus musculus [39] = test: Tested for biodistribution of radioactivity after 72 hr of intravenous injection in mice liver; type: ADME, organism-based
Mus musculus [40] = test: Tested for biodistribution of radioactivity after 10 min of intravenous injection in mice blood; type: ADME, organism-based
Mus musculus [41] = test: Tested for biodistribution of radioactivity after 3h of intravenous injection in mice intestine; type: ADME, organism-based
Mus musculus [42] = test: Tested for biodistribution of radioactivity after 10 min of intravenous injection in mice liver; type: ADME, organism-based
Mus musculus [43] = test: Tested for biodistribution of radioactivity after 24 hr of intravenous injection in mice stomach; type: ADME, organism-based
Mus musculus [44] = test: Tested for biodistribution of radioactivity after 6 hr of intravenous injection in mice spleen; type: ADME, organism-based
Mus musculus [45] = test: Tested for biodistribution of radioactivity after 48 hr of intravenous injection in mice liver; type: ADME, organism-based
Mus musculus [46] = test: Tested for biodistribution of radioactivity after 72 hr of intravenous injection in mice stomach; type: ADME, organism-based
Mus musculus [47] = test: Tested for biodistribution of radioactivity after 24 hr of intravenous injection in mice urine; type: ADME, organism-based
Mus musculus [48] = test: Tested for biodistribution of radioactivity after 6 hr of intravenous injection in mice liver; type: ADME, organism-based
Mus musculus [49] = test: Tested for biodistribution of radioactivity after 72 hr of intravenous injection in mice blood; type: ADME, organism-based
Mus musculus [50] = test: Tested for biodistribution of radioactivity after 1 hr of intravenous injection in mice stomach; type: ADME, organism-based
Mus musculus [51] = test: Tested for biodistribution of radioactivity after 48 hr of intravenous injection in mice blood; type: ADME, organism-based
Mus musculus [52] = test: Tested for biodistribution of radioactivity after 24 hr of intravenous injection in mice intestine; type: ADME, organism-based
Mus musculus [53] = test: Tested for biodistribution of radioactivity after 6 hr of intravenous injection in mice kidneys; type: ADME, organism-based, Kidney
Mus musculus [54] = test: Tested for biodistribution of radioactivity after 3h of intravenous injection in mice stomach; type: ADME, organism-based
Mus musculus [55] = test: Tested for biodistribution of radioactivity after 24 hr of intravenous injection in mice spleen; type: ADME, organism-based
Mus musculus [56] = test: Tested for biodistribution of radioactivity after 1 hr of intravenous injection in mice blood; type: ADME, organism-based
Mus musculus [57] = test: Tested for biodistribution of radioactivity after 1 hr of intravenous injection in mice spleen; type: ADME, organism-based
Mus musculus [58] = test: Tested for biodistribution of radioactivity after 3h of intravenous injection in mice blood; type: ADME, organism-based

Dose/organ (Mus musculus [1]): 0.55%
Dose/organ (Mus musculus [2]): 1.83%
Dose/organ (Mus musculus [3]): 8.15%
Dose/organ (Mus musculus [4]): 4.25%
Dose/organ (Mus musculus [5]): 4.94%
Dose/organ (Mus musculus [6]): 7.07%
Dose/organ (Mus musculus [7]): 7.97%
Dose/organ (Mus musculus [8]): 3.55%
Dose/organ (Mus musculus [9]): 0.83%
Dose/organ (Mus musculus [10]): 0.42%
Dose/organ (Mus musculus [11]): 1.3%
Dose/organ (Mus musculus [12]): 11.91%
Dose/organ (Mus musculus [13]): 0.66%
Dose/organ (Mus musculus [14]): 0.72%
Dose/organ (Mus musculus [15]): 0.85%
Dose/organ (Mus musculus [16]): 2.73%
Dose/organ (Mus musculus [17]): 0.44%
Dose/organ (Mus musculus [18]): 5.7%
Dose/organ (Mus musculus [19]): 0.83%
Dose/organ (Mus musculus [20]): 7.4%
Dose/organ (Mus musculus [21]): 14.38%
Dose/organ (Mus musculus [22]): 2.35%
Dose/organ (Mus musculus [23]): 0.34%
Dose/organ (Mus musculus [24]): 6.9%
Dose/organ (Mus musculus [25]): 11.17%
Dose/organ (Mus musculus [26]): 3.27%
Dose/organ (Mus musculus [27]): 5.55%
Dose/g (Mus musculus [28]): 14.39%
Dose/organ (Mus musculus [29]): 2.43%
Dose/g (Mus musculus [30]): 23.13%
Dose/organ (Mus musculus [31]): 0.34%
Dose/organ (Mus musculus [32]): 2.03%
Dose/organ (Mus musculus [33]): 4.23%
Dose/organ (Mus musculus [34]): 6.31%
Dose/organ (Mus musculus [35]): 0.25%
Dose/organ (Mus musculus [36]): 0.55%
Dose/organ (Mus musculus [37]): 0.91%
Dose/organ (Mus musculus [38]): 11.1%
Dose/organ (Mus musculus [39]): 3.34%
Dose/organ (Mus musculus [40]): 38.38%
Dose/organ (Mus musculus [41]): 2.88%
Dose/organ (Mus musculus [42]): 15.66%
Dose/organ (Mus musculus [43]): 0.49%
Dose/organ (Mus musculus [44]): 5.48%
Dose/organ (Mus musculus [45]): 3.84%
Dose/organ (Mus musculus [46]): 0.4%
Dose/organ (Mus musculus [47]): 10.09%
Dose/organ (Mus musculus [48]): 9.83%
Dose/g (Mus musculus [49]): 11.5%
Dose/organ (Mus musculus [50]): 0.81%
Dose/g (Mus musculus [51]): 12.64%
Dose/organ (Mus musculus [52]): 1.06%
Dose/organ (Mus musculus [53]): 6.57%
Dose/organ (Mus musculus [54]): 1.31%
Dose/organ (Mus musculus [55]): 3.37%
Dose/g (Mus musculus [56]): 31.31%
Dose/organ (Mus musculus [57]): 6.38%
Dose/g (Mus musculus [58]): 26.13%
Structure (SMILES): NCCCCC(N)C(=O)NC(=O)c1cccc(I)c1 (stereo not drawn)
